In patent US7691969B2, “Isolated GRP94 ligand binding domain polypeptide and nucleic acid encoding same, crystalline form of same, and screening methods employing same” (Duke University, priority 2001, dated 2010):

Legend:
BiP = test: [3H]-NECA binding assay (vacuum filtration); set-up: species or system porcine; conditions: 20 nM [3H]-NECA, 60 min on ice
GRP94 [1] = target: T1, GRP94 (Sus scrofa, UniProt Q29092); test: Isothermal titration calorimetry; assay type: binding, porcine
T1 construct: GRP94 was purified from porcine pancreas rough microsomes; from tissue; host or cells: porcine pancreas rough microsomes (lumenal contents)
T1 sequence (Q29092 22-804): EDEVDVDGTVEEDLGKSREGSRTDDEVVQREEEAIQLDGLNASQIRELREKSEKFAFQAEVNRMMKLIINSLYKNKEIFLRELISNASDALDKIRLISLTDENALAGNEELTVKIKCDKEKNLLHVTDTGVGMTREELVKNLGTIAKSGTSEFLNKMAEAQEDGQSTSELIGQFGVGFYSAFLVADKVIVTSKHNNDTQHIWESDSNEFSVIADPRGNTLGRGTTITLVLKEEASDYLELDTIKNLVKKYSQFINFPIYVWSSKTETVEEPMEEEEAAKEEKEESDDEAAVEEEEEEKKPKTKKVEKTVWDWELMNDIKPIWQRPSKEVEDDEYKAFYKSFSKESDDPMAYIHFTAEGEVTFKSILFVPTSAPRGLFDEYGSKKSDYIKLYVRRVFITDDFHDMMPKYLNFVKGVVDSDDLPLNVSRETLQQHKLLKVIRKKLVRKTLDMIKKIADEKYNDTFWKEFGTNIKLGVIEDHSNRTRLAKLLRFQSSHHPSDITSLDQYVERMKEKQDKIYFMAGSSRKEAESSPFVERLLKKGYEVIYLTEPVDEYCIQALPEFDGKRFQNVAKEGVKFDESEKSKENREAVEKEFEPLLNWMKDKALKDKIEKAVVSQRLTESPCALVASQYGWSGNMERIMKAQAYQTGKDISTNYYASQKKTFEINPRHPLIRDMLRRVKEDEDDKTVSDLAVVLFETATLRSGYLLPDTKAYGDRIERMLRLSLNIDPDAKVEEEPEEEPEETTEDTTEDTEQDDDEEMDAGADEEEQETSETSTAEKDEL
Method: Isothermal Titration Calorimetry. Isothermal calorimetry experiments were performed at 25° C. using a MSC calorimeter (MicroCal Inc. of Northampton, Mass.). […] The reaction chamber (1.3 mL) contained 5 μM GRP94. Necessary corrections were made by subtracting the heats of dilution resulting from buffer addition to protein solution and ligand solution into buffer.

GRP94 [2] = target: T1, GRP94; test: ATPase assay (HPLC of ATP/ADP); assay type: biochemical, porcine
Method: ATPase Assay. 100 μl reactions consisting of 1 μM GRP94 monomer, various concentrations of MgATP (pH 7.0), and 50 mM K-Hepes, pH 7.4, were incubated for two hours at 37° C. Samples were then spun through a CENTRICON®-30 (Amicon of Beverly, Mass.) at 10,000 rpm, 4° C. to separate protein from nucleotide. A final concentration of 50 mM (NH4)2HPO4, pH 7.0, and 4 μM AMP, pH 7.0, was added to dilutions of the above samples and centrifuged at 15,200 rpm for 5 minutes at 4° C. 100 μL of supernatant was then fractionated on a […]™ SAX column (Alltech of Deerfield, Ill.), using a Series 1050 Hewlett Packard HPLC system. Elution of nucleotides was performed by step gradient elution using a mobile phase of 150 mM (NH4)2HPO4, pH 5.2, at 1.2 ml/min for the first ten minutes, followed by 300 mM (NH4)2HPO4, pH 5.2, at a flow rate of 2 ml/min for the remainder of the elution. In this protocol, ADP and ATP were well resolved, with ADP eluting at 7 minutes and ATP at 12 minutes. Peak height values were used in calculations of percent hydrolysis and ADP formation. Spontaneous hydrolysis was determined for each ATP concentration in paired incubations lacking GRP94. The AMP was used as an internal reference standard to control for equivalent sample loading.

GRP94 [3] = target: T1, GRP94; test: GRP94 autophosphorylation assay; assay type: biochemical, porcine; conditions: 180 μM NECA or radicicol in 3.6% DMSO, 5 μg/ml heparin, 5 mM GTP
Method: (§1) Phosphorylation Assays. To assay for GRP94 autophosphorylation, 1 μM GRP94 was incubated with γ-[^32P]ATP (6000 cpm/pmol) (Amersham Pharmacia Biotech of Piscataway, N.J.), diluted with cold ATP to yield a final concentration of 0.15 mM ATP in a buffer containing 10 mM Mg(OAc)2 and 50 mM K-Hepes, pH 7.4. For the casein kinase assay, 1 unit of casein kinase II was incubated as described above, with the addition of 4 μM casein. […] The 25 μl reaction mixtures were incubated at 37° C. for 1 hour and quenched by addition of 10% trichloroacetic acid. Samples were analyzed by 10% SDS-PAGE gels and the phosphorylated species were quantitated using a Fuji MACBAS1000™ phosphorimaging system (Fuji Medical Systems of Stamford, Conn.).

casein kinase II = casein kinase II (Homo sapiens, UniProt P68400); test: Casein kinase assay; assay type: biochemical; conditions: 180 μM NECA or radicicol in 3.6% DMSO, 5 μg/ml heparin, 5 mM GTP; 4 μM casein
Sequence of casein kinase II (P68400 whole entry): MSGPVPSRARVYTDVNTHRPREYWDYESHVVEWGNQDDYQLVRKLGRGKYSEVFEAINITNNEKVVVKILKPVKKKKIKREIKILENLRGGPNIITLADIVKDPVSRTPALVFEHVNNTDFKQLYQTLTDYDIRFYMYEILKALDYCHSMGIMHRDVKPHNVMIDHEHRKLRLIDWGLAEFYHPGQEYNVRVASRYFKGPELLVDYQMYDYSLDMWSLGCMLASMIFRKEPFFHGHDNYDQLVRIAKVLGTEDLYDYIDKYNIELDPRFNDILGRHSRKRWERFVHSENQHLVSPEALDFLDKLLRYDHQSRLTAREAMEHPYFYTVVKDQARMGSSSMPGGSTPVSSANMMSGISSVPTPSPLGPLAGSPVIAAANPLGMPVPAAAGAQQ
Sequence of casein kinase II (P67870 whole entry partner): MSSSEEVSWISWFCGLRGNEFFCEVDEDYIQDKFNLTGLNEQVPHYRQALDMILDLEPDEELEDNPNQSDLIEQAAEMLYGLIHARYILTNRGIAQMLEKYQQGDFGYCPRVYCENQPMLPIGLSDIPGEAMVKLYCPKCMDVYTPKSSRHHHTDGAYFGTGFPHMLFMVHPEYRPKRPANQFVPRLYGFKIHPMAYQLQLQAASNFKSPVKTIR
Method: as §1

GRP94 [4] = target: T1, GRP94; test: [3H]-NECA competitive displacement assay; assay type: binding, porcine; conditions: 10 mM Mg(OAc)2 versus nominal magnesium
Method: (§2) Where indicated, binding reactions were performed in either buffer C (10 mM Tris, pH 7.5, 50 mM KCl, 5 mM MgCl2, 2 mM DTT, 0.01% NP-40, 20 mM Na2MoO4) or 50 mM Tris, pH 7.5, 10 mM Mg(OAc)2. […] Vacuum filtration was performed with an Amersham Pharmacia Biotech (Piscataway, N.J.) vacuum filtration manifold.
All binding reactions were performed in triplicate and corrected by subtraction of background values, determined in binding reactions lacking GRP94.

GRP94 [5] = target: T1, GRP94; test: Tryptophan fluorescence (tertiary conformational state); assay type: biochemical, porcine; conditions: 50 μM NECA, 50 μM geldanamycin, 2.5 mM ATP or 2.5 mM ADP; 1 h 37° C.
Method: Tryptophan Fluorescence. Tryptophan fluorescence measurements were conducted in a FLUOROMAX™ spectrofluorometer (Spex Industries, Inc. of Edison, N.J.) with the slit widths set to 1 nm for both excitation and emission. […] All spectra were corrected by subtraction of buffer or buffer plus ligand samples. GRP94 (50 μg/ml) was incubated in buffer A supplemented with 10 mM Mg(OAc)2 and the following concentrations of ligands for 1 hour at 37° C. […] Samples were then cooled to room temperature, transferred to a quartz cuvette, and the spectra collected.

GRP94 [6] = target: T1, GRP94; test: [3H]-NECA binding assay (vacuum filtration); set-up: species or system porcine
Method: as §2
Filters were rapidly washed with 3×4 ml of ice cold 50 mM Tris, pH 7.5, placed in 5 ml of scintillation fluid (SAFETYSOLVE™, RPI of Mt. Prospect, Ill.), vortexed, and counted by liquid scintillation spectrometry. […] All binding reactions were performed in triplicate and corrected by subtraction of background values, determined in binding reactions lacking GRP94.

## CCNC(=O)[C@H]1O[C@@H](n2cnc3c(N)ncnc32)[C@H](O)[C@@H]1O [NECA, N-ethylcarboxamidoadenosine]
BiP
  [3H]-NECA binding activity: [^3H]-NECA binding was not observed for Hsp90 or BiP
GRP94 [1]
  binding stoichiometry at saturation (summary of ligand binding studies and calorimetry): 1 mol NECA:mol GRP94 dimer
GRP94 [1]; 5 μM GRP94, 152 μM NECA stock, 25° C.
  binding stoichiometry by isothermal titration calorimetry: 1.1 mol NECA/mol GRP94 dimer
GRP94 [2]
  inhibition of GRP94 ATPase activity: sensitive to inhibition by NECA
GRP94 [3]
  inhibition of GRP94 autophosphorylation (GRP94-derived kinase) activity: neither NECA nor radicicol, both of which bind to the N-terminal nucleotide binding domain of GRP94, significantly inhibit GRP94 derived or casein kinase II activity below the solvent background
Casein kinase II
  inhibition of casein kinase II activity: neither NECA nor radicicol, both of which bind to the N-terminal nucleotide binding domain of GRP94, significantly inhibit GRP94 derived or casein kinase II activity below the solvent background
GRP94 [4]
  effect of excess Mg2+ on binding to GRP94: without effect on the binding of NECA or adenosine to GRP94
GRP94 [5]
  change of GRP94 tryptophan fluorescence: increased the tryptophan fluorescence
GRP94 [6]
  slope of Hill plot: 1.2
GRP94 [6]; 20 nM [3H]-NECA, 60 min on ice
  [3H]-NECA binding activity: displayed readily detectable [^3H]-NECA binding activity
GRP94 [6]; FIG. 9B
  maximal binding stoichiometry (saturation curve): 1 molecule of NECA per molecule of GRP94 dimer
GRP94 [6]; radioligand filtration
  binding stoichiometry: 0.5 mol [^3H]-NECA/mol GRP94 monomer
